Source: patent US12297285B2 (Orna Therapeutics, Inc., priority 2022, dated 2025)

Experiments:
Experiment in all cases: IRES screening, Gaussia luciferase from LNP-oRNA (Table 27)
Conditions in all cases: Gaussia luciferase luminescence in supernatant 48 hours after LNP-oRNA transfection, normalized to control (caprine kobuvirus IRES)
[1] = test system: primary human skeletal myotubes
[2] = test system: activated primary human T cells
[3] = test system: primary human hepatocytes

SMILES	[Mod] Fold Change Myo [1]	[Mod] T Fold Change [2]	[Mod] PHH Fold Change [3]
CCCCCCCCCN(CCn1ccnc1)C(CCCCCCCCC(=O)OCC(CCCC)CCCCCC)CCCCCCCCC(=O)OCC(CCCC)CCCCCC (stereo not drawn) [Lipid 10a-146]	0.04323 Fold Change	0.03465 Fold Change	0.5873 Fold Change
Cc1nccn1CCCN(CCCCCCCC(=O)OCC(CCC(C)C)C(C)C)CCCCCCCC(=O)OCC(CCC(C)C)C(C)C (stereo not drawn) [Lipid 10a-99]	0.1639 Fold Change	0.2767 Fold Change	1.02 Fold Change
CC(C)CCC(C)CCOC(=O)CCCCCCCN(CCCCCCCC(=O)OCCC(C)CCC(C)C)CCCn1ccnc1 (stereo not drawn) [Lipid 10a-100]	0.4952 Fold Change	0.4826 Fold Change	1.228 Fold Change
Cc1nccn1CCCN(CCCCCCCCC(=O)OCCC(C)CC(C)(C)C)CCCCCCCCC(=O)OCCC(C)CC(C)(C)C (stereo not drawn) [Lipid 10a-106]	0.3524 Fold Change	0.648 Fold Change	1.093 Fold Change
CCCCCCCCC(CCCCCC)C(=O)OCCCCCCN(CCCCCCOC(=O)C(CCCCCC)CCCCCCCC)CCn1ccnc1 (stereo not drawn) [Lipid 10a-129]	0.05369 Fold Change	0.08945 Fold Change	0.6689 Fold Change
Cc1nccn1CCCC(=O)OC(CCCCCCOC(=O)CC(C)CCCC(C)C)CCCCCCOC(=O)CC(C)CCCC(C)C (stereo not drawn) [Lipid 10a-117]	0.04273 Fold Change	0.04612 Fold Change	0.4258 Fold Change
CCCCCCCCC(CCCCCC)C(=O)OCCCCCCN(CCCCCCOC(=O)C(CCCCCC)CCCCCCCC)CCn1ccnc1C (stereo not drawn) [Lipid 10a-139]	0.0597 Fold Change	0.09732 Fold Change	0.5206 Fold Change
CCCCCCCCCCCCCCN(Cc1nccn1C)C(CCCCCCCCC(=O)OCC(CCCC)CCCCCC)CCCCCCCCC(=O)OCC(CCCC)CCCCCC (stereo not drawn) [Lipid 10a-136]	0.04786 Fold Change	0.04232 Fold Change	0.4286 Fold Change
CCCCCCCCCOC(=O)CCCCCCCN(CCCCCCCC(=O)OC(CCCCCCCC)CCCCCCCC)CCC(C)n1ccnc1 (stereo not drawn) [Lipid 10a-131]	0.03951 Fold Change	0.03336 Fold Change	0.5348 Fold Change
CCCCCCCCC(CCCCCC)C(=O)OCCCCCCN(CCCCCCOC(=O)C(CCCCCC)CCCCCCCC)CCC(C)n1ccnc1 (stereo not drawn) [Lipid 10a-130]	0.04058 Fold Change	0.06076 Fold Change	0.5728 Fold Change
Cc1nccn1CCCC(=O)OC(CCCCCCCC(=O)OCCC(C)CCC(C)C)CCCCCCCC(=O)OCCC(C)CCC(C)C (stereo not drawn) [Lipid 10a-103]	0.04558 Fold Change	0.03951 Fold Change	0.6471 Fold Change
CCCCCCCCCN(CCCn1ccnc1)C(CCCCCCCCC(=O)OCC(CCCC)CCCCCC)CCCCCCCCC(=O)OCC(CCCC)CCCCCC (stereo not drawn) [Lipid 10a-142]	0.03852 Fold Change	0.02743 Fold Change	0.468 Fold Change
CCCCC(CC)CCC(=O)OCCCCCCN(CCCCCCOC(=O)CCC(CC)CCCC)CCCn1ccnc1C (stereo not drawn) [Lipid 10a-110]	0.2424 Fold Change	0.5133 Fold Change	0.7175 Fold Change
Cc1nccn1CCCN(CCCCCCCC(=O)OCCC(C)CCC(C)C)CCCCCCCC(=O)OCCC(C)CCC(C)C (stereo not drawn) [Lipid 10a-102]	0.04469 Fold Change	0.031 Fold Change	0.5141 Fold Change
CC(C)=CCC/C(C)=C/C(=O)OCCCCCCC(CCCCCCOC(=O)/C=C(\C)CCC=C(C)C)OC(=O)CCCn1ccnc1C (stereo not drawn) [Lipid 10a-121]	0.6276 Fold Change	1.029 Fold Change	0.9977 Fold Change
CCCCC(C)CCC(=O)OCCCCCCC(CCCCCCOC(=O)CCC(C)CCCC)OC(=O)CCCn1ccnc1C (stereo not drawn) [Lipid 10a-115]	0.05074 Fold Change	0.04693 Fold Change	0.425 Fold Change
CCCCC/C=C\C/C=C\CCCCCCCC(=O)OCC(COC(=O)CCC(OCCCCCCCC)OCCCCCCCC)COC(=O)OCCCn1ccnc1C (stereo not drawn) [Lipid 10a-141]	0.04025 Fold Change	0.03106 Fold Change	0.547 Fold Change
CCCCCCCCC(CCCCCC)C(=O)OCCCCCCN(CCCn1ccnc1C)CC(O)CCCCOC(=O)C(CCCCCC)CCCCCCCC (stereo not drawn) [Lipid 10a-149]	0.03919 Fold Change	0.02893 Fold Change	0.7118 Fold Change

SMILES	[Mod] Fold Change Myo [1]	[Mod] T Fold Change [2]	[Mod] PHH Fold Change [3]
CCCCCCCCCOC(=O)CCCCCCCN(CCCCCCCC(=O)OC(CCCCCCCC)CCCCCCCC)Cc1nccn1C [Lipid 10a-133]	0.03933 Fold Change	0.03004 Fold Change	0.541 Fold Change
CCCCC(CC)CCC(=O)OCCCCCCN(CCCCCCOC(=O)CCC(CC)CCCC)CCCn1ccnc1 (stereo not drawn) [Lipid 10a-109]	0.2492 Fold Change	0.6261 Fold Change	0.8533 Fold Change
CCCCCCCCC(CCCCCC)OCCOC(=O)CCN(CCCn1ccnc1C)CCC(=O)OCCOC(CCCCCC)CCCCCCCC (stereo not drawn) [Lipid 10a-143]	0.03901 Fold Change	0.03265 Fold Change	0.4209 Fold Change
Cc1nccn1CCCC(=O)OC(CCCCCCCC(=O)OCC(CCC(C)C)C(C)C)CCCCCCCC(=O)OCC(CCC(C)C)C(C)C (stereo not drawn) [Lipid 10a-98]	0.2906 Fold Change	0.677 Fold Change	0.788 Fold Change
CC(C)CCC(COC(=O)CCCCCCCC(CCCCCCCC(=O)OCC(CCC(C)C)C(C)C)OC(=O)CCCn1ccnc1)C(C)C (stereo not drawn) [Lipid 10a-97]	0.2602 Fold Change	0.3532 Fold Change	1.163 Fold Change
CC(C)=CCC/C(C)=C/C(=O)OCCCCCCN(CCCCCCOC(=O)/C=C(\C)CCC=C(C)C)CCCn1ccnc1C [Lipid 10a-127]	0.2936 Fold Change	0.6858 Fold Change	0.6745 Fold Change
CCCCCCCCCN(CCn1ccnc1C)C(CCCCCCCCC(=O)OCC(CCCC)CCCCCC)CCCCCCCCC(=O)OCC(CCCC)CCCCCC (stereo not drawn) [Lipid 10a-145]	0.03927 Fold Change	0.0263 Fold Change	0.6359 Fold Change
CCCCC(C)CCC(=O)OCCCCCCN(CCCCCCOC(=O)CCC(C)CCCC)CCCn1ccnc1C (stereo not drawn) [Lipid 10a-114]	0.05835 Fold Change	0.06812 Fold Change	0.7898 Fold Change
CC(C)=CCC/C(C)=C/C(=O)OCCCCCCN(CCCCCCOC(=O)/C=C(\C)CCC=C(C)C)CCCn1ccnc1 [Lipid 10a-126]	0.05793 Fold Change	0.06647 Fold Change	0.6456 Fold Change
CCCCCCCCC(CCCCCC)C(=O)OCCCCCCN(CCCCCCOC(=O)C(CCCCCC)CCCCCCCC)Cc1nccn1C (stereo not drawn) [Lipid 10a-128]	0.4893 Fold Change	0.5837 Fold Change	1.021 Fold Change
CCCCCCCCC(CC)OC(=O)CCCCCCCN(CCCCCCCC(=O)OC(CCCCCCCC)CCCCCCCC)CCCn1ccnc1C (stereo not drawn) [Lipid 10a-138]	0.3723 Fold Change	0.6378 Fold Change	0.6157 Fold Change
CCCCC(CC)CCC(=O)OCCCCCCC(CCCCCCOC(=O)CCC(CC)CCCC)OC(=O)CCCn1ccnc1C (stereo not drawn) [Lipid 10a-111]	0.2223 Fold Change	0.4651 Fold Change	0.787 Fold Change
Cc1nccn1CCCN(CCCCCCOC(=O)CC(C)CCCC(C)C)CCCCCCOC(=O)CC(C)CCCC(C)C (stereo not drawn) [Lipid 10a-123]	0.03971 Fold Change	0.03011 Fold Change	0.638 Fold Change
Cc1nccn1CCCC(=O)OC(CCCCCCCCC(=O)OCCC(C)CC(C)(C)C)CCCCCCCCC(=O)OCCC(C)CC(C)(C)C (stereo not drawn) [Lipid 10a-107]	0.2879 Fold Change	0.9371 Fold Change	1.119 Fold Change
CCCCCCCCCCCCCCN(CCC(C)n1ccnc1)C(CCCCCCCCC(=O)OCC(CCCC)CCCCCC)CCCCCCCCC(=O)OCC(CCCC)CCCCCC (stereo not drawn) [Lipid 10a-134]	0.04662 Fold Change	0.05294 Fold Change	0.4673 Fold Change
CC(C)=CCCC(C)CC(=O)OCCCCCCC(CCCCCCOC(=O)CC(C)CCC=C(C)C)OC(=O)CCCn1ccnc1 (stereo not drawn) [Lipid 10a-118]	0.1546 Fold Change	0.4562 Fold Change	0.6669 Fold Change
CCCCCCCCCN(CCCCn1ccnc1)C(CCCCCCCCC(=O)OCC(CCCC)CCCCCC)CCCCCCCCC(=O)OCC(CCCC)CCCCCC (stereo not drawn) [Lipid 10a-148]	0.03913 Fold Change	0.02909 Fold Change	0.7368 Fold Change
CCCCCCCCCOC(=O)CCCCCCCN(CCCCCCCC(=O)OC(CCCCCCCC)CCCCCCCC)CCn1ccnc1 [Lipid 10a-132]	0.03998 Fold Change	0.03118 Fold Change	0.5643 Fold Change
